Species: Rattus norvegicus
Test: Open TG-GATES - Regimen: Single
Format: toxicity, organism-based, Sprague-Dawley
Design: regimen Single, gender Male, age 6 weeks
Details: in vivo, po, 10 mg/kg, route gavage, dose level Middle; for APTT / Bas / Eos / Fbg / Hb / Ht / Lym / MCH / MCHC / MCV / Mono / Neu / PT / Plat / RBC / Ret / WBC: tissue Blood; for KIDNEY_L / KIDNEY_R / KIDNEY_TOTAL: tissue Kidney; for LIVER: tissue Liver; for A/G / ALP / ALT / AST / BUN / CRE / Ca / Cl / DBIL / GLC / IP / K / LDH / Na / PL / RALB / TBIL / TC / TG / TP / gamma-GTP: tissue Plasma

## Cn1cnc([N+](=O)[O-])c1Sc1ncnc2nc[nH]c12 [AZATHIOPRINE]
3 h
  TERMINAL_BW: 192.8 g
  APTT: 22.9 s
  Bas: 0%
  Eos: 0.8%
  Fbg: 277.6 mg/dL
  Hb: 13.1 g/dL
  Ht: 39.1%
  Lym: 77.8%
  MCH: 21.6 pg
  MCHC: 33.7%
  MCV: 64.2 fL
  Mono: 2.2%
  Neu: 18%
  PT: 15.7 s
  Plat: 117.8 x10_4/uL
  RBC: 609.8 x10_4/ul
  Ret: 9.7%
  WBC: 65 x10_2/uL
  KIDNEY_L: 0.9 g
  KIDNEY_R: 0.9 g
  KIDNEY_TOTAL: 1.7 g
  LIVER: 8.5 g
  A/G: 1.1
  ALP: 1723.6 IU/L
  ALT: 47.6 IU/L
  AST: 78 IU/L
  BUN: 11.4 mg/dL
  CRE: 0.2 mg/dL
  Ca: 10.6 mg/dL
  Cl: 105.6 meq/L
  DBIL: 0.006 mg/dL
  GLC: 189.4 mg/dL
  IP: 9.1 mg/dL
  K: 4.1 meq/L
  LDH: 211.4 IU/L
  Na: 141.8 meq/L
  PL: 133.2 mg/dL
  RALB: 2.9 g/dL
  TBIL: 0.008 mg/dL
  TC: 77 mg/dL
  TG: 57.6 mg/dL
  TP: 5.5 g/dL
  gamma-GTP: 1 IU/L
6 h
  TERMINAL_BW: 189.2 g
  APTT: 21.4 s
  Bas: 0%
  Eos: 1%
  Fbg: 308.4 mg/dL
  Hb: 12.8 g/dL
  Ht: 39%
  Lym: 72%
  MCH: 21.4 pg
  MCHC: 32.9%
  MCV: 65.2 fL
  Mono: 2.8%
  Neu: 22.8%
  PT: 15.6 s
  Plat: 124.6 x10_4/uL
  RBC: 598.6 x10_4/ul
  Ret: 9.2%
  WBC: 73.6 x10_2/uL
  KIDNEY_L: 0.9 g
  KIDNEY_R: 0.9 g
  KIDNEY_TOTAL: 1.8 g
  LIVER: 8.1 g
  A/G: 1.2
  ALP: 1521.2 IU/L
  ALT: 41.8 IU/L
  AST: 70.6 IU/L
  BUN: 8.8 mg/dL
  CRE: 0.1 mg/dL
  Ca: 10.5 mg/dL
  Cl: 107.2 meq/L
  DBIL: 0.004 mg/dL
  GLC: 175.4 mg/dL
  IP: 9.1 mg/dL
  K: 4.6 meq/L
  LDH: 249.2 IU/L
  Na: 140.8 meq/L
  PL: 120.6 mg/dL
  RALB: 2.9 g/dL
  TBIL: 0.01 mg/dL
  TC: 72.6 mg/dL
  TG: 50.4 mg/dL
  TP: 5.4 g/dL
  gamma-GTP: 1 IU/L
9 h
  TERMINAL_BW: 183.9 g
  APTT: 22.4 s
  Bas: 0%
  Eos: 1%
  Fbg: 304.8 mg/dL
  Hb: 12.9 g/dL
  Ht: 38.9%
  Lym: 74.8%
  MCH: 21.8 pg
  MCHC: 33.2%
  MCV: 65.6 fL
  Mono: 2.4%
  Neu: 20.6%
  PT: 15.3 s
  Plat: 114.2 x10_4/uL
  RBC: 592.2 x10_4/ul
  Ret: 9%
  WBC: 83.3 x10_2/uL
  KIDNEY_L: 0.9 g
  KIDNEY_R: 0.9 g
  KIDNEY_TOTAL: 1.7 g
  LIVER: 7.7 g
  A/G: 1.2
  ALP: 1473.8 IU/L
  ALT: 32.4 IU/L
  AST: 64.8 IU/L
  BUN: 10 mg/dL
  CRE: 0.1 mg/dL
  Ca: 10.4 mg/dL
  Cl: 106.6 meq/L
  DBIL: 0 mg/dL
  GLC: 186 mg/dL
  IP: 9.6 mg/dL
  K: 4.2 meq/L
  LDH: 223.2 IU/L
  Na: 141 meq/L
  PL: 145 mg/dL
  RALB: 3.1 g/dL
  TBIL: 0.012 mg/dL
  TC: 85.2 mg/dL
  TG: 47 mg/dL
  TP: 5.6 g/dL
  gamma-GTP: 1 IU/L
24 h
  TERMINAL_BW: 199.9 g
  APTT: 20.9 s
  Bas: 0%
  Eos: 1%
  Fbg: 309 mg/dL
  Hb: 13.4 g/dL
  Ht: 39.3%
  Lym: 81.6%
  MCH: 21.7 pg
  MCHC: 34.1%
  MCV: 63.9 fL
  Mono: 2%
  Neu: 14.4%
  PT: 15.4 s
  Plat: 120.4 x10_4/uL
  RBC: 616.2 x10_4/ul
  Ret: 7.9%
  WBC: 54.7 x10_2/uL
  KIDNEY_L: 0.9 g
  KIDNEY_R: 0.9 g
  KIDNEY_TOTAL: 1.8 g
  LIVER: 9.2 g
  A/G: 1.3
  ALP: 1643.2 IU/L
  ALT: 40.2 IU/L
  AST: 71.4 IU/L
  BUN: 15.4 mg/dL
  CRE: 0.1 mg/dL
  Ca: 10.8 mg/dL
  Cl: 106.8 meq/L
  DBIL: 0.002 mg/dL
  GLC: 190.6 mg/dL
  IP: 7.6 mg/dL
  K: 4.1 meq/L
  LDH: 203.8 IU/L
  Na: 143 meq/L
  PL: 160.2 mg/dL
  RALB: 3.1 g/dL
  TBIL: 0.006 mg/dL
  TC: 90 mg/dL
  TG: 82.6 mg/dL
  TP: 5.6 g/dL
  gamma-GTP: 1 IU/L
